Source: patent publication US8026342B2, “Compositions and methods for binding sphingosine-1-phosphate” (Lpath, Inc., priority 2006, dated 2011)

B1: LT1002: murine anti-S1P monoclonal antibody, IgG1 kappa, from hybridoma clone 306D326.26 (antibody, listed as Mus sp., V domains shown)
VH: QAHLQQSDAELVKPGASVKISCKVSGFIFIDHTIHWMKQRPEQGLEWIGCISPRHDITKYNEMFRGKATLTADKSSTTAYIQVNSLTFEDSAVYFCARGGFYGSTIWFDFWGQGTTLTVS
VL: ETTVTQSPASLSMAIGEKVTIRCITTTDIDDDMNWFQQKPGEPPNLLISEGNILRPGVPSRFSSSGYGTDFLFTIENMLSEDVADYYCLQSDNLPFTFGSGTKLEIK

What was measured:
CNV lesions = test: Sonepcizumab dose response in laser CNV model (fluorescein-labeled dextran); assay type: in vivo, mice
Method: Mice (n=10) received a single, bilateral intravitreal injection of escalating doses of sonepcizumab (0.085, 0.85, 1.7 or 5 μg/eye) or a high dose nonspecific (NS) antibody (3.0 μg/eye) one day prior to laser-induced rupture of Bruch's membrane. Fourteen days after laser rupture, mice were anesthetized and perfused with fluorescein-labeled dextran and choroidal flatmounts were prepared for analysis of CNV lesion size.
In this study, the effect of sonepcizumab dose amount and dose interval on CNV inhibition were examined using another validated method of quantifying CNV area in which animals were perfused with fluorescein-labeled dextran just before sacrifice. Sonepcizumab induced a dose-dependent reduction in the area of CNV resulting in a maximal inhibition of approximately 50%, at a dose of 5 μg/eye. This reduction was significant (p<0.0001 compared to non-specific antibody control using an unpaired t-test). In the dosing frequency study, similar efficacy was observed between groups treated with Sonepcizumab at a single timepoint (day 0) or at multiple timepoints (days 0 and 7) over the 14-day study.

[1] = tested on: VEGF-induced angiogenesis; test: VEGF-induced angiogenesis in GFR Matrigel plug assay; assay type: in vivo, nu/nu mice; settings: 10 mg/kg i.p. every 72 hrs, 12 days
Method: Neovascularization in vivo was performed using the GFR Matrigel plug assay as described in Staton, et al., Int J Exp Pathol, 2004. 85(5): p. 233-48. 4-6 week old nu/nu mice were injected in the left flank with 500 uL of ice-cold GFR Matrigel. The GFR Matrigel was injected either alone (control) or after addition of 10 ug/mL VEGF supplemented with 100 ug/ml heparin. Groups consisted of 3 animals for control and sonepcizumab treatment. Animals were treated with the saline or sonepcizumab (10 mg/kg) 1 day prior to the implantation of GFR Matrigel and doses were administrated i.p. every 72 hrs for the duration of the experiment. After 12 days animals were sacrificed; the plugs were excised and immediately fixed in zinc and formalin-free fixative overnight, embedded in paraffin and sectioned (5 um). Paraffin-embedded sections were then stained for CD31 (Pharmingen). Images (9 images per section, 3 sections per plug) were taken by digital camera at 20× magnification and the CD31 positive staining was then quantified by PhotoShop 6.0 program and expressed as angiogenesis score (pixel^2) by ImageJ.

CNV and vascular leakage = test: Vascular leakage and CNV area after laser rupture of Bruch's membrane; assay type: in vivo, C57BL/6 mice; settings: 5 μg intraocular
Method: C57BL/6 mice (n=10) underwent laser rupture of Bruch's membrane in 3 locations in each eye and were given an intraocular injection of 5 μg of sonepcizumab in one eye and vehicle in the contralateral eye. At one week after laser rupture, the mice were given an intraperitoneal injection of 12 μl/g body weight of 1% fluorescein sodium and were euthanized 5 minutes later. The eyes were removed and fixed in PBS-buffered formalin at room temperature for 5 hours. Then the retinas were dissected, washed, and incubated with primary anti-PECAM-1. The retinas were then washed, incubated with secondary antibody (goat anti-rat IgG conjugated with rhodamine), and then flat mounted.
Quantification of CNV lesion area is measured by PECAM-1 staining. Quantification of vascular leakage is measured by fluorescein sodium staining. The total area of leakage from CNV=CNV+leakage (green)−area of CNV (red). Values represent the mean±SEM for n=10 mice/group. […] This is a 50% reduction in neovascularization (p-0.018). […] This is approximately a 38% reduction (p-0.017) in blood vessel leakage.

DU145 tumor = test: SC DU145 prostate tumor xenograft; assay type: in vivo, nude NCr (nu/nu) mice; settings: LT1009 50 mg/kg ip q2d; Avastin 20 mg/kg q4d; Paclitaxel 7.5 mg/kg q1d×5
Method: Nude mice were implanted sc near the right flank with one fragment per mouse of DU145 tumor from an in vivo passage. All treatments were initiated the day when 60 mice in each experiment established tumors ranging in size from approximately 100 to 200 mm^3. […] Paclitaxel and Avastin were administered iv and ip at a dosage of 7.5 mg/kg/dose and 20 mg/kg/dose, q1d×5 and q4d, respectively, injected in a volume of 0.1 mL/10 g body weight.
During the course of the study tumor growth was monitored by measuring the sc tumors on three axes and calculating the volume. At the end of the study final tumor weights and volumes were determined and then the mice were sacrificed, the tumors harvested. Microvascular densities (MVD) of the tumors were then determined by CD-31 staining.

[2] = GLP 28-day safety toxicology study of LT1009 in monkeys; assay type: in vivo
Method: In addition, blood was collected from recovery animals 48, 72, 144 and 240 hours following the end of the last dose. Parameters monitored during this study included mortality, clinical signs, body weight, qualitative evaluation of the food consumption, ophthalmology, electrocardiography, and clinical pathology (hematology, clinical chemistry, coagulation and urinalysis). Blood samples were also collected for immunophenotyping assessments, at pre-treatment, on the last day of treatment, and on days 35, 42 and at the end of the recovery period. At termination, a macroscopic examination was performed and selected organs were weighed. Histological evaluation of tissues was conducted on all animals.

[3] = tested on: cardiac scar formation / immune-cell wound infiltration; test: Permanent myocardial infarction murine model (fibrosis, immune cell infiltration); assay type: in vivo, mice
Method: SPHINGOMAB reduced immune-cell wound infiltration in vivo. Mice were subjected to MI, treated with saline or 25 mg/kg SPHINGOMAB 48 hr. after surgery and then sacrificed on day 4. SPHINGOMAB reduced macrophage (A) and mast cell (B) infiltration into the wound. Data are represented as fold decrease of saline-treated values.
Studies evaluated the efficacy of SPHINGOMAB to reduce cardiac scar formation after permanent myocardial infarction (MI) via ligation of the left descending coronary artery in mice. Systemic administration of 25 mg/kg SPHINGOMAB or saline was initiated 48 hrs after surgery. Antibody administration at 48 hr. was chosen to allow normal, reparative scar formation to occur during the early remodeling phase and permit beneficial, S1P-stimulated angiogenesis immediately after the MI. Two weeks after the infarct, mice were sacrificed and fibrosis was accessed by Masson's trichrome staining of the cardiac tissue. […] As a control for any non-specific wound-healing responses, sham animals underwent thoracotomy without coronary artery ligation (FIG. 7E).
Based upon the similarities of immune and inflammatory responses in CNV and CVD, the efficacy of SPHINGOMAB to mitigate immune cell infiltration into a wound was evaluated in a murine infarct model as an indication of SPHINGOMAB's potential effects in mitigating these damages during AMD [Vine, et al. (2005), Ophthalmology., vol 112: 2076-80; and Seddon and Chen (2004), Int Ophthalmol Clin., vol 44: 17-39]. Four days post-MI, macrophage and mast cell infiltration was evaluated using MAC-1 and MCG35 antibodies, respectively, within the area at risk.

Molecule | maximal inhibition of CNV area (CNV lesions; 5 μg/eye single intravitreal, 14 days) | reduction in CNV lesion size greater than that observed with the VEGF-Trap (CNV lesions; comparison of two independent studies, VEGF-Trap 4.92 μg/eye (Saishin et al.)) | prevention of VEGF-stimulated increase in cellularity and microvessel density [1] | reduction in blood vessel leakage vs saline (CNV and vascular leakage) | reduction in neovascularization vs saline (CNV and vascular leakage) | area of choroidal neovascularization (PECAM-1) (CNV and vascular leakage; one week after laser) | area of leakage from choroidal neovascularization (fluorescein) (CNV and vascular leakage; one week after laser) | % Reduction compared to Vehicle-Treated Mice (DU145 tumor) | Final Tumor Weights (DU145 tumor) | absolute number of T cells on Day 28 ([2]; 100 mg/kg) | mean lymphocyte counts (+/-SD) after treatment ([2]; 100 mg/kg, males and females combined) | tolerability ([2]; 3, 10, 30 and 100 mg/kg every third day over 28 days) | No Observed Toxic Effect Level (NOTEL) ([2]; 30-minute i.v. infusion every third day for 28 days) | perivascular fibrosis ([3]; 25 mg/kg from 48 hrs after surgery, two weeks after infarct) | density of inflammatory macrophages ([3]; four days post-MI) | density of mast cells ([3]; four days post-MI)
LT1009: humanized anti-S1P IgG1/kappa mAb with Cys to Ala in HCDR2, light chain with 5 backmutations; SEQ ID NO: 31/32 | approximately 50% | 20 percentage points | ~80% | ~38% | 50% | approximately 0.015 mm^2 | approximately 0.125 mm^2 | 28% | 2242 mg | statistically significant decrease | 3.18+/−1.25 10^9 cells/L | well tolerated | 100 mg/kg |  |  | 
B1 |  |  |  |  |  |  |  |  |  |  |  |  |  | almost complete abrogation | dramatically attenuated | dramatically attenuated
